# Measured values from PMC8584173, “The Cytotoxic Effect of Copper (II) Complexes with Halogenated 1,3-Disubstituted Arylthioureas on Cancer and Bacterial Cells” (International Journal of Molecular Sciences, 2021).
# Values joined by “and” are separate entries in the source; they are usually repeats but may differ in a detail not shown here. Identical values can stand only once.
# How the values were obtained:
# [1] = test system: standard staphylococci; experiment: MIC, standard staphylococci; type: cell-based, Staphylococcus; conditions: standard staphylococci / S. aureus isolates
# Protocol: The antimicrobial activity of the compounds was tested on Gram-positive bacteria (Staphylococcus aureus NCTC 4163, Staphylococcus aureus ATCC 25923, Staphylococcus aureus ATCC 6538, Staphylococcus aureus ATCC 29213, Staphylococcus epidermidis ATCC 12228, Staphylococcus epidermidis ATCC 35984), Gram-negative rods (Escherichia coli ATCC 10538, Escherichia coli ATCC 25922, Pseudomonas aeruginosa ATCC 15442, Pseudomonas aeruginosa ATCC 27863) and yeasts (Candida albicans ATCC 10231, Candida albicans ATCC 90028, Candida parapsilosis ATCC 22019). Hospital methicillin-resistant strains of Staphylococcus aureus and Staphylococcus epidermidis were obtained from the collection of the Department of Pharmaceutical Microbiology, Medical University of Warsaw, Poland.
# Antifungal activities were assessed using Mueller–Hinton agar + 2% glucose and 0.5 µg/mL methylene blue dye medium. Sterile filter paper discs (9 mm diameter, Whatman Number 3 chromatography paper) were dripped with tested compound solutions (in dimethylsulfoxide, DMSO) to load 400 μg of a given compound per disc. Dry discs were placed on the surface of appropriate agar medium. The results (diameter of the growth inhibition zone) were read after 18 h of incubation at 35 °C. Minimal inhibitory concentration (MIC) was tested by the twofold serial microdilution method (in 96-well microtiter plates) using Mueller–Hinton broth medium (Beckton Dickinson) for bacteria or RPMI-1640 medium for Candida species, according to CLSI guidelines. The stock solution of tested agent was prepared in DMSO and diluted in sterile water. […] The final inoculum of all studied microorganisms was 10^5 CFU/ mL^−1 (colony forming units per ml). Minimal inhibitory concentrations (the lowest concentration of a tested agent that prevents visible growth of a microorganism) were read after 18 h (bacteria) or 24 h (yeasts) of incubation at 35 °C.
# [2] = test system: Glutathione reductase, mitochondrial (GSHR_HUMAN); experiment: LC–MS proteome analysis, GSHR; type: cell-based, Homo sapiens; conditions: IC50 concentration, % of control
# Protocol: (§1) Enzymes involved in oxidoreductive potential were analyzed in the cell lysates obtained after treatment cells with selected conjugates for 24 h. Cells were washed with phosphate-buffered saline (PBS) and harvested, then centrifuged at 1000× g for 10 min. Then, lysis buffer (containing protease inhibitor, 1% RIPA Lysis and Extraction Buffer (ThermoFisher)) and cold PBS were added, and samples were sonicated three times in ice bath. Next, the cell lysates were centrifuged at 14,000× g at 4 °C for 15 min, and then supernatants were stored at […] before use. Protein concentration was measured by the Bradford method.
# (§2) Normalized protein concentrations (5 µg) from cell lysate were precipitated by ice cold (–20 °C) acetonitrile (ACN, Merck, in ratio 1:4). Then, samples were centrifuged (–9 °C, 30 min., 18,000× g), the supernatant was discarded and ACN excess was evaporated using a vacuum centrifuge (5 min., room temp.). Protein pellet was dissolved in 40 mM ammonium bicarbonate. An amount of 500 mM dithiothreitol (DTT, with final concentration 20 mM) and 1 M iodoacetamide (IAA, with final concentration 40 mM) were used for reduction and alkylation processes. After 16 h of incubation in 37 °C with Trypsin Gold (Promega), digested protein samples were diluted with 0.1% formic acid (ThermoFisher) and centrifuged (+2 °C, 30 min, 18,000× g).
# (§3) LC–MS analysis was carried out with the use of nanoUHPLC (nanoElute, Bruker) coupled by CaptiveSpray (Bruker) to ESI-Q-TOF mass spectrometer (Compact, Bruker). Two-column separation method was used, i.e., pre-column (300 µm × 5 mm, C18 PepMap 100, 5 µm, 100Å, Thermo Scientific) and Aurora separation column with CSI fitting (75 µm × 250 mm, C18 1.6 µm) in gradient 2% B to 35% B in 90 min with the 300 nL/min flow rate. Mobile phases (A) 0.1% formic acid in water and (B) 0.1% formic acid in ACN were used.
# (§4) Sample ionizations were performed at a gas flow of 3.0 L/min, temperature of 150 °C and voltage of the capillary at 1600 V. The quadrupole energy was fixed to 5.0 eV and collision chamber energy 7.0 eV, with an ion transfer time of 90 µs. The ions were analyzed in the positive polarity mode in the range 150–2200 m/z, with the acquisition frequency of the 1 Hz spectrum, as well as with the autoMS/MS system.
# (§5) The collected spectra were analyzed and calibrated using DataAnalysis software (Bruker) and then identified in ProteinScape (Bruker) by the MASCOT server. Protein identification was conducted using the online SwissProt and NCBIprot databases, and their references and biological significance were identified using Reactome.org, String.org and KEGG.
# [3] = test system: SW620 cells; experiment: Annexin V-FITC/PI flow cytometry, SW620; type: cell-based, human; conditions: SW620, IC50 dose, 72 h
# Protocol: The cells were cultured and harvested under the conditions described in the cell culture section. […] The effect of these compounds on the process of early and late apoptosis and necrosis was determined, as described previously, by dual staining with annexin V-FITC and propidium iodide according to manufacturer’s protocol (Becton Dickinson). The cells that were annexin V-FITC positive and PI-negative were identified as early apoptotic and annexin V-FITC and PI-positive as late apoptotic or necrotic.
# [4] = test system: Glutathione S-transferase omega-1 (GSTO1_HUMAN); experiment: LC–MS proteome analysis, GSTO1; type: cell-based, Homo sapiens; conditions: IC50 concentration, % of control
# Protocol: as §1, §2, §3, §4, §5
# [5] = test system: Peroxiredoxin-2 (PRDX2_HUMAN); experiment: LC–MS proteome analysis, PRDX2; type: cell-based, Homo sapiens; conditions: IC50 concentration, % of control
# Protocol: as §1, §2, §3, §4, §5
# [6] = test system: Peroxiredoxin-6 (PRDX6_HUMAN); experiment: LC–MS proteome analysis, PRDX6; type: cell-based, Homo sapiens; conditions: IC50 concentration, % of control
# Protocol: as §1, §2, §3, §4, §5
# [7] = test system: Superoxide dismutase [Cu-Zn] (SODC_HUMAN); experiment: LC–MS proteome analysis, SODC; type: cell-based, Homo sapiens; conditions: IC50 concentration, % of control
# Protocol: as §1, §2, §3, §4, §5
# [8] = test system: Peroxiredoxin-5, mitochondrial (PRDX5_HUMAN); experiment: LC–MS proteome analysis, PRDX5; type: cell-based, Homo sapiens; conditions: IC50 concentration, % of control
# Protocol: as §1, §2, §3, §4, §5
# [9] = test system: detoxifying and ROS-scavenging enzymes (GST, GR, SOD, PRDX); experiment: LC–MS proteome analysis, all 12 tested enzymes (text summaries); type: cell-based, human; conditions: PC3, IC50 concentration, span over enzymes
# Protocol: as §1, §2
# LC–MS analysis was carried out with the use of nanoUHPLC (nanoElute, Bruker) coupled by CaptiveSpray (Bruker) to ESI-Q-TOF mass spectrometer (Compact, Bruker). […]
# as §4
# The collected spectra were analyzed and calibrated using DataAnalysis software (Bruker) and then identified in ProteinScape (Bruker) by the MASCOT server. […]
# [10] = test system: Peroxiredoxin-4 (PRDX4_HUMAN); experiment: LC–MS proteome analysis, PRDX4; type: cell-based, Homo sapiens; conditions: IC50 concentration, % of control
# Protocol: as §1, §2, §3, §4, §5
# [11] = test system: Superoxide dismutase [Mn], mitochondrial (SODM_HUMAN); experiment: LC–MS proteome analysis, SODM; type: cell-based, Homo sapiens; conditions: IC50 concentration, % of control
# Protocol: as §1, §2, §3, §4, §5
Compound,MIC [1],"Protein Intensity, % (GSHR) ([2]; PC3, 24 h) [%]","Protein Intensity, % (GSHR) ([2]; SW480, 24 h) [%]","Protein Intensity, % (GSHR) ([2]; SW620, 24 h) [%]","early apoptosis, % of cells [3]","Protein Intensity, % (GSTO1) ([4]; PC3, 24 h) [%]","Protein Intensity, % (GSTO1) ([4]; SW480, 24 h) [%]","Protein Intensity, % (GSTO1) ([4]; SW620, 24 h) [%]","Protein Intensity, % (PRDX2) ([5]; PC3, 24 h) [%]","Protein Intensity, % (PRDX2) ([5]; SW480, 24 h) [%]","Protein Intensity, % (PRDX2) ([5]; SW620, 24 h) [%]","Protein Intensity, % (PRDX6) ([6]; PC3, 24 h) [%]","Protein Intensity, % (PRDX6) ([6]; SW480, 24 h) [%]","Protein Intensity, % (PRDX6) ([6]; SW620, 24 h) [%]","Protein Intensity, % (SODC) ([7]; PC3, 24 h) [%]","Protein Intensity, % (SODC) ([7]; SW480, 24 h) [%]","Protein Intensity, % (SODC) ([7]; SW620, 24 h) [%]","Protein Intensity, % (PRDX5) ([8]; PC3, 24 h)","Protein Intensity, % (PRDX5) ([8]; SW480, 24 h) [%]","Protein Intensity, % (PRDX5) ([8]; SW620, 24 h) [%]",further results
"O=[N+]([O-])c1cc([N+]2=C(Nc3cccc(Br)c3)[S][Cu-2]23[S]C(Nc2cccc(Br)c2)=[N+]3c2ccc(Cl)c([N+](=O)[O-])c2)ccc1Cl [Compound 2, Copper (II) complex with 1-(3-bromophenyl)-3-(4-chloro-3-nitrophenyl)thiourea]",16 to 32 µg/mL,,,,,,,,,,,,,,,,,,,,
"O=[N+]([O-])c1cc([N+]2=C(Nc3ccc(F)c(Cl)c3)[S][Cu-2]23[S]C(Nc2ccc(F)c(Cl)c2)=[N+]3c2ccc(Cl)c([N+](=O)[O-])c2)ccc1Cl [Compound 4, Copper (II) complex with 1-(3-chloro-4-fluorophenyl)-3-(4-chloro-3-nitrophenyl)thiourea]",4 µg/mL,,,,,,,,,,,,,,,,,,,,
"O=[N+]([O-])c1cc([N+]2=C(Nc3ccc(Br)cc3)[S][Cu-2]23[S]C(Nc2ccc(Br)cc2)=[N+]3c2ccc(Cl)c([N+](=O)[O-])c2)ccc1Cl [Compound 3, Copper (II) complex with 1-(4-bromophenyl)-3-(4-chloro-3-nitrophenyl)thiourea]",,58.9,63.1,79.2,approximately 20%,64.0,66.0,77.0,47.3,93.7,71.6,71.1,81.3,66.4,30.9,75.3,78.2,40.9%,84.8,82.4,"reduction of intensity of the 12 tested enzymes [9]: 29.4–69.1%; Protein Intensity, % (PRDX4) ([10]; PC3, 24 h): 61.1%; Protein Intensity, % (PRDX4) ([10]; SW480, 24 h): 60.1%; Protein Intensity, % (PRDX4) ([10]; SW620, 24 h): 76.4%; Protein Intensity, % (SODM) ([11]; PC3, 24 h): 31.2%; Protein Intensity, % (SODM) ([11]; SW480, 24 h): 77.7%; Protein Intensity, % (SODM) ([11]; SW620, 24 h): 77.1%"
"O=[N+]([O-])c1cc([N+]2=C(Nc3ccc(Cl)c(Cl)c3)[S][Cu-2]23[S]C(Nc2ccc(Cl)c(Cl)c2)=[N+]3c2ccc(Cl)c([N+](=O)[O-])c2)ccc1Cl [Compound 5, Copper (II) complex with 1-(4-chloro-3-nitrophenyl)-3-(3,4-dichlorophenyl)thiourea]",16 to 32 µg/mL and 32 µg/mL,,,,,,,,,,,,,,,,,,,,
"O=[N+]([O-])c1cc([N+]2=C(Nc3ccccc3Br)[S][Cu-2]23[S]C(Nc2ccccc2Br)=[N+]3c2ccc(Cl)c([N+](=O)[O-])c2)ccc1Cl [Compound 1, Copper (II) complex with 1-(2-bromophenyl)-3-(4-chloro-3-nitrophenyl)thiourea]",,71.1,58.1,69.1,38.4% ± 2.4%,65.0,70.9,85.5,42.3,95.5,92.1,66.6,75.1,83.2,58.5,68.2,72.7,29% and 29.3%,77.3,88.3,"Protein Intensity, % (PRDX4) ([10]; PC3, 24 h): 72.6%; Protein Intensity, % (PRDX4) ([10]; SW480, 24 h): 67.6%; Protein Intensity, % (PRDX4) ([10]; SW620, 24 h): 79.4%; Protein Intensity, % (SODM) ([11]; PC3, 24 h): 29% and 29.1%; Protein Intensity, % (SODM) ([11]; SW480, 24 h): 67.8%; Protein Intensity, % (SODM) ([11]; SW620, 24 h): 88.8%"
